{"source": "paper PMC5833004", "about": "(ACS Central Science, 2018)", "key": {"bromodomain of CBP": {"target": "bromodomain of CBP (Homo sapiens, UniProt Q92793)", "assay": "Alpha Screen assay", "type": "binding"}, "[1]": {"target": "GFP-fused multimerized CBP bromodomain (Homo sapiens, UniProt Q92793)", "assay": "FRAP assay in U2OS cells, GFP-fused CBP bromodomain", "type": "cell-based", "settings": "compound 1 μM, 2.5 μM SAHA"}, "LP1 cells": {"system": "LP1 cells", "assay": "Cell proliferation, resazurin assay", "type": "cell-based, human", "settings": "72 h or 144 h"}, "Kasumi cells": {"system": "Kasumi cells", "assay": "Cell proliferation, resazurin assay", "type": "cell-based, human", "settings": "72 h or 144 h"}, "[2]": {"system": "MRC5 nontransformed fibroblast", "assay": "Cell proliferation, resazurin assay", "type": "cell-based", "settings": "Homo sapiens, MRC5, 72 h, read-out: GI50 MRC5"}, "HL-60 cells": {"system": "HL-60 cells", "assay": "Cell proliferation, resazurin assay", "type": "cell-based", "settings": "144 h"}, "IRF4 mRNA": {"system": "IRF4 mRNA", "assay": "RT-qPCR mRNA transcription in LP1 cells", "type": "cell-based, human", "settings": "6 h incubation, dose-response"}, "c-MYC mRNA": {"system": "c-MYC mRNA", "assay": "RT-qPCR mRNA transcription in LP1 cells", "type": "cell-based, human", "settings": "6 h incubation, dose-response"}}, "note": "Entries after “also recorded” stand apart in the source; their conditions may differ.", "data": [{"smiles": "CCOc1ccc(C(C)=O)cc1NC(=O)c1cc(NC(C)=O)cc(NC(=O)c2ccco2)c1", "note": "[Compound 16]", "values": [{"measurement": "affinity for CBP bromodomain higher by a factor with respect to BRD4(1)", "setting": "bromodomain of CBP", "result": "more than 10,000"}, {"measurement": "displacement of GFP-fused CBP bromodomain from chromatin (FRAP)", "setting": "[1]", "result": "significant displacement; also recorded: strongest effect"}, {"measurement": "proliferation of LP1 cells", "setting": "LP1 cells", "result": "selectively inhibited the proliferation"}, {"measurement": "proliferation of Kasumi cells", "setting": "Kasumi cells", "result": "selectively inhibited the proliferation"}, {"measurement": "GI50", "setting": "[2]", "result": "> 20", "unit": "µM"}, {"measurement": "proliferation of HL-60 cells", "setting": "HL-60 cells", "result": "selectively inhibited the proliferation"}, {"measurement": "IRF4 mRNA level", "setting": "IRF4 mRNA", "result": "reduced"}, {"measurement": "c-MYC mRNA level", "setting": "c-MYC mRNA", "result": "reduced"}]}, {"smiles": "CCOc1ccc(C(C)=O)cc1NC(=O)Cc1csc(-c2ccc(OC)c(OC)c2)n1", "note": "[Compound 6]", "values": [{"measurement": "displacement of GFP-fused CBP bromodomain from chromatin (FRAP)", "setting": "[1]", "result": "significant displacement"}]}, {"smiles": "CCOc1ccc(C(C)=O)cc1NC(=O)c1cc(NC(C)=O)cc(NC(=O)c2ccc(OC)c(OC)c2)c1", "note": "[Compound 17]", "values": [{"measurement": "displacement of GFP-fused CBP bromodomain from chromatin (FRAP)", "setting": "[1]", "result": "significant displacement"}]}, {"smiles": "CCOc1ccc(C(C)=O)cc1-c1ccc(N2CCCS2(=O)=O)cc1C", "note": "[Compound 13]", "values": [{"measurement": "displacement of GFP-fused CBP bromodomain from chromatin (FRAP)", "setting": "[1]", "result": "significant displacement"}]}, {"smiles": "CCOc1ccc(C(C)=O)cc1NC(=O)c1ccc(C)c(NC(=O)c2ccco2)c1", "note": "[Compound 7]", "values": [{"measurement": "displacement of GFP-fused CBP bromodomain from chromatin (FRAP)", "setting": "[1]", "result": "significant displacement"}]}]}
